Measurements: ChEMBL document CHEMBL1201862, “PubChem BioAssay data set” (2004)
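A five-concentration, 48-hour dose response in 96-well plates underlies each endpoint, interpolated linearly between surrounding concentrations. Abbreviation: GI50, concentration required for 50% inhibition of growth.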 Active and inactive are the calls of the source. Cut-off read from the data, not from the text of the source: active = GI50 up to about 1.1 µM and inactive = higher.

Assays:
Assay in all cases: NCI tumour cell line growth inhibition, 48 h
HOP-92 = system: HOP-92
RXF 393 = system: RXF 393
OVCAR-3 = system: OVCAR-3
NCI-H23 = system: NCI-H23
HCT-116 = system: HCT-116
M14 = system: M14
ACHN = system: ACHN
EKVX = system: EKVX
NCI-H460 = system: NCI-H460
NCI-H522 = system: NCI-H522
UACC-257 = system: UACC-257
SK-MEL-28 = system: SK-MEL-28
KM12 = system: KM12
U-251 = system: U-251
UACC-62 = system: UACC-62
Malme-3M = system: Malme-3M
HT-29 = system: HT-29
SNB-19 = system: SNB-19
OVCAR-5 = system: OVCAR-5
CCRF-CEM = system: CCRF-CEM

Row | SMILES | GI50 (HOP-92) | GI50 (RXF 393) | GI50 (OVCAR-3) | GI50 (NCI-H23) | GI50 (HCT-116) | GI50 (M14) | GI50 (ACHN) | GI50 (EKVX) | GI50 (NCI-H460) | GI50 (NCI-H522) | GI50 (UACC-257) | GI50 (SK-MEL-28) | GI50 (KM12) | GI50 (U-251) | GI50 (UACC-62) | GI50 (Malme-3M) | GI50 (HT-29) | GI50 (SNB-19) | GI50 (OVCAR-5) | GI50 (CCRF-CEM)
1 | Cn1c(=O)c(C(c2ccccc2)c2c(O)c3ccccc3n(C)c2=O)c(O)c2ccccc21 | > 100 µM (inactive) | > 100 µM (inactive) | > 100 µM (inactive) | > 100 µM (inactive) | > 100 µM (inactive) | > 100 µM (inactive) | > 100 µM (inactive) | > 100 µM (inactive) | > 100 µM (inactive) | > 100 µM (inactive) | > 100 µM (inactive) | > 100 µM (inactive) | > 100 µM (inactive) | > 100 µM (inactive) | > 100 µM (inactive) | > 100 µM (inactive) | > 100 µM (inactive) | > 100 µM (inactive) | 23.2 µM (inactive) | –
2 | COc1ccc(/C=N\NC(=O)Nc2cccc3ccccc23)cc1 | 21.4 µM (inactive) | > 10 µM (inactive) | – | 34.6 µM (inactive) | 13.7 µM (inactive) | 35.4 µM (inactive) | 14.5 µM (inactive) | 26.9 µM (inactive) | 10 µM (inactive) | 15.6 µM (inactive) | 34.9 µM (inactive) | > 100 µM (inactive) | 11.7 µM (inactive) | 13.9 µM (inactive) | – | 26.2 µM (inactive) | 8.97 µM (inactive) | 17.1 µM (inactive) | > 100 µM (inactive) | > 100 µM (inactive)
3 | COC1CCC2C(=O)CCCC2O1 (stereo not drawn) | > 100 µM (inactive) | > 100 µM (inactive) | > 100 µM (inactive) | > 100 µM (inactive) | > 100 µM (inactive) | > 100 µM (inactive) | > 100 µM (inactive) | > 100 µM (inactive) | > 100 µM (inactive) | > 100 µM (inactive) | > 100 µM (inactive) | – | > 100 µM (inactive) | > 100 µM (inactive) | > 100 µM (inactive) | > 100 µM (inactive) | > 100 µM (inactive) | > 100 µM (inactive) | > 100 µM (inactive) | –
4 | O=C1C(=O)N(C2CCCCC2)C(=S)N1C1CCCCC1 | > 100 µM (inactive) | > 100 µM (inactive) | – | > 100 µM (inactive) | > 100 µM (inactive) | – | > 100 µM (inactive) | > 100 µM (inactive) | > 100 µM (inactive) | 7.76 µM (inactive) | > 100 µM (inactive) | > 100 µM (inactive) | > 100 µM (inactive) | > 100 µM (inactive) | > 100 µM (inactive) | > 100 µM (inactive) | > 100 µM (inactive) | > 100 µM (inactive) | > 100 µM (inactive) | > 100 µM (inactive)
5 | CC(=O)N[C@H]1CCCC[C@@H]1OC(C)=O | > 100 µM (inactive) | > 100 µM (inactive) | > 100 µM (inactive) | > 100 µM (inactive) | > 100 µM (inactive) | – | > 100 µM (inactive) | > 100 µM (inactive) | > 100 µM (inactive) | > 100 µM (inactive) | > 100 µM (inactive) | > 100 µM (inactive) | > 100 µM (inactive) | > 100 µM (inactive) | > 100 µM (inactive) | > 100 µM (inactive) | > 100 µM (inactive) | – | > 100 µM (inactive) | –
6 | CC(C)C[C@H](NC(=O)[C@H](Cc1cccc2ccccc12)NS(=O)(=O)c1cccc2cccnc12)B(O)O | 0.00726 µM (active) | < 0.015 µM (active) | < 0.0111 µM (active) | < 0.0226 µM (active) | < 0.0133 µM (active) | – | 0.0327 µM (active) | 0.372 µM (active) | 0.0893 µM (active) | 0.0106 µM (active) | 0.0103 µM (active) | – | 0.0432 µM (active) | 0.0264 µM (active) | 0.0223 µM (active) | < 0.01 µM (active) | < 0.0165 µM (active) | < 0.0225 µM (active) | < 0.0142 µM (active) | < 0.01 µM (active)
